Laboratory results published in patent publication US11446287B2, “Compounds and methods for EP300 or CBP modulation and indications therefor” (Opna Immuno-Oncology SA, priority 2019, dated 2022).

biological target: T1, Recombinant human CBP containing the bromodomain (CBP-BD (1043-1159)) (Homo sapiens, UniProt Q92793); experiment: CBP Alphascreen binding assay; details: read-out: CREBBP (CBP) IC50
T1 construct: Recombinant human CBP bromodomain (CBP-BD (1043-1159)); made in house; host or cells: E. coli BL21-CodonPlus (DE3), modified pET vector
Summary of the method: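 Buffer: 50 mM HEPES pH 7.5, 50 mM NaCl, 0.01% BSA, 0.01% Triton X-100, 2 mM DTT. The signal was normalised to plate controls and fitted with a four-parameter curve to give IC50.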

T1 sequence (Q92793 1081-1197): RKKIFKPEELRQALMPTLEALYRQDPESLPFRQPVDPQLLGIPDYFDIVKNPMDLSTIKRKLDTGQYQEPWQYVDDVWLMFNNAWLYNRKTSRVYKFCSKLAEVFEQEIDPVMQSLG

Q: Which IC50 does the source give for Cc1noc(C)c1-c1cnc2c(c1)c(-c1ccc(C(=O)O)cc1OCC(F)F)cn2C(C1CC1)C1CC1 [P-0338, 4-(1-(dicyclopropylmethyl)-5-(3,5-dimethylisoxazol-4-yl)-1H-pyrrolo[2,3-b]pyridin-3-yl)-3-(2,2-difluoroethoxy)benzoic acid] here?
A: The IC50 was 0.1 to 1000 nM.

Q: Which IC50 does the source give for COc1ncccc1-n1cc(-c2ccc(C(=O)O)cc2OC(F)(F)F)c2cc(-c3c(C)noc3C)cnc21 [P-0316, 4-(5-(3,5-dimethylisoxazol-4-yl)-1-(2-methoxypyridin-3-yl)-1H-pyrrolo[2,3-b]pyridin-3-yl)-3-(trifluoromethoxy)benzoic acid] here?
A: The IC50 was 0.1 to 1000 nM.

Q: How did the IC50 turn out when Cc1noc(C)c1-c1cnc2c(c1)c(-c1ccc(C(=O)O)cc1OC(C)C)cn2C1CCOCC1 [P-0357, 4-(5-(3,5-dimethylisoxazol-4-yl)-1-(tetrahydro-2H-pyran-4-yl)-1H-pyrrolo[2,3-b]pyridin-3-yl)-3-isopropoxybenzoic acid] was run?
A: Its IC50 is 0.1 to 1000 nM.

Q: Which IC50 does the source give for Cc1noc(C)c1-c1cnc2c(c1)c(-c1c(Cl)cc(C(=O)O)cc1OC(F)(F)F)cn2-c1cnc(C2CC2)nc1 [P-0386, 3-chloro-4-(1-(2-cyclopropylpyrimidin-5-yl)-5-(3,5-dimethylisoxazol-4-yl)-1H-pyrrolo[2,3-b]pyridin-3-yl)-5-(trifluoromethoxy)benzoic acid] here?
A: Its IC50 is 0.1 to 1000 nM.

Q: With Cc1noc(C)c1-c1cnc2c(c1)c(-c1c(Cl)cc(C(=O)O)cc1OC1CC1)cn2C1CCOCC1 [P-0381, 3-chloro-5-cyclopropoxy-4-(5-(3,5-dimethylisoxazol-4-yl)-1-(tetrahydro-2H-pyran-4-yl)-1H-pyrrolo[2,3-b]pyridin-3-yl)benzoic acid] as the compound, how does the IC50 read?
A: Its IC50 is 0.1 to 1000 nM.

Q: Which IC50 does the source give for Cc1noc(C)c1-c1cnc2c(c1)c(-c1ccc(C(=O)O)cc1OCC(F)F)cn2-c1cnc(C2CC2)nc1 [P-0387, 4-(1-(2-cyclopropylpyrimidin-5-yl)-5-(3,5-dimethylisoxazol-4-yl)-1H-pyrrolo[2,3-b]pyridin-3-yl)-3-(2,2-difluoroethoxy)benzoic acid] here?
A: Its IC50 is 0.1 to 1000 nM.

Q: Which IC50 does the source give for Cc1noc(C)c1-c1cnc2c(c1)c(-c1c(Cl)cc(C(=O)O)cc1OC(F)(F)F)cn2C(C1CCC1)C1CCC1 [P-0380, 3-chloro-4-(1-(dicyclobutylmethyl)-5-(3,5-dimethylisoxazol-4-yl)-1H-pyrrolo[2,3-b]pyridin-3-yl)-5-(trifluoromethoxy)benzoic acid] here?
A: The IC50 was 0.1 to 1000 nM.

Q: How did the IC50 turn out when Cc1noc(C)c1-c1cnc2c(c1)c(-c1c(Cl)cc(C(=O)O)cc1OC1CC1)cn2C(C1CC1)C1CC1 [P-0363, 3-chloro-5-cyclopropoxy-4-(1-(dicyclopropylmethyl)-5-(3,5-dimethylisoxazol-4-yl)-1H-pyrrolo[2,3-b]pyridin-3-yl)benzoic acid] was run?
A: The IC50 was 0.1 to 1000 nM.

Q: With Cc1noc(C)c1-c1cnc2c(c1)c(-c1ccc(C(=O)O)c(C(F)(F)F)c1)cn2C(c1ccccn1)C1CCCC1 (stereo not shown) [P-0029, 4-(1-(cyclopentyl(pyridin-2-yl)methyl)-5-(3,5-dimethylisoxazol-4-yl)-1H-pyrrolo[2,3-b]pyridin-3-yl)-2-(trifluoromethyl)benzoic acid] as the compound, how does the IC50 read?
A: Its IC50 is 0.1 to 1000 nM.

Q: With CCOc1cc(C(=O)O)c(F)cc1-c1cn(C2CCOCC2)c2ncc(-c3c(C)noc3C)cc12 [P-0375, 4-(5-(3,5-dimethylisoxazol-4-yl)-1-(tetrahydro-2H-pyran-4-yl)-1H-pyrrolo[2,3-b]pyridin-3-yl)-5-ethoxy-2-fluorobenzoic acid] as the compound, how does the IC50 read?
A: The IC50 was 0.1 to 1000 nM.

Q: Which IC50 does the source give for Cc1nn(CC(=O)N(C)C)cc1-n1cc(-c2ccc(C(=O)O)cc2OC(F)(F)F)c2cc(-c3c(C)noc3C)cnc21 [P-0366, 4-(1-(1-(2-(dimethylamino)-2-oxoethyl)-3-methyl-1H-pyrazol-4-yl)-5-(3,5-dimethylisoxazol-4-yl)-1H-pyrrolo[2,3-b]pyridin-3-yl)-3-(trifluoromethoxy)benzoic acid] here?
A: Its IC50 is 0.1 to 1000 nM.

Q: Cc1noc(C)c1-c1cnc2c(c1)c(-c1ccc(CC(=O)O)cc1)cn2C(c1ccccn1)C1CCCC1 (stereo not shown) [P-0031, 2-(4-(1-(cyclopentyl(pyridin-2-yl)methyl)-5-(3,5-dimethylisoxazol-4-yl)-1H-pyrrolo[2,3-b]pyridin-3-yl)phenyl)acetic acid] was tested. Which IC50 did it give?
A: The IC50 was 0.1 to 1000 nM.

Q: With Cc1noc(C)c1-c1cnc2c(c1)c(-c1c(Cl)cc(C(=O)O)cc1OCC(F)F)cn2C1CCOCC1 [P-0359, 3-chloro-5-(2,2-difluoroethoxy)-4-(5-(3,5-dimethylisoxazol-4-yl)-1-(tetrahydro-2H-pyran-4-yl)-1H-pyrrolo[2,3-b]pyridin-3-yl)benzoic acid] as the compound, how does the IC50 read?
A: Its IC50 is 0.1 to 1000 nM.

Q: Cc1noc(C)c1-c1cnc2c(c1)c(-c1ccc(C(=O)O)cc1OC1CCC1)cn2[C@H]1CCOC1 [P-0350, (S)-3-cyclobutoxy-4-(5-(3,5-dimethylisoxazol-4-yl)-1-(tetrahydrofuran-3-yl)-1H-pyrrolo[2,3-b]pyridin-3-yl)benzoic acid] was tested. Which IC50 did it give?
A: The IC50 was 0.1 to 1000 nM.

Q: How did the IC50 turn out when Cc1noc(C)c1-c1cnc2c(c1)c(-c1ccc(C(=O)O)cc1Cl)cn2C(c1ccccn1)C1CCCC1 (stereo not shown) [P-0027, 3-chloro-4-(1-(cyclopentyl(pyridin-2-yl)methyl)-5-(3,5-dimethylisoxazol-4-yl)-1H-pyrrolo[2,3-b]pyridin-3-yl)benzoic acid] was run?
A: The IC50 was 0.1 to 1000 nM.

Q: Cc1noc(C)c1-c1cnc2c(c1)c(-c1ccc(C(=O)O)cc1OC(F)(F)F)cn2-c1cnc(N(C)C)nc1 [P-0321] was tested. Which IC50 did it give?
A: Its IC50 is 0.1 to 1000 nM.
